This passage reports EC50, IC50 and AC50 results from ChEMBL document CHEMBL1201862, “PubChem BioAssay data set” (2004).

The target in assay [1] is T1, RNA-binding protein pos-1 (Caenorhabditis elegans, UniProt G5EF15).
T1 sequence (G5EF15 whole entry): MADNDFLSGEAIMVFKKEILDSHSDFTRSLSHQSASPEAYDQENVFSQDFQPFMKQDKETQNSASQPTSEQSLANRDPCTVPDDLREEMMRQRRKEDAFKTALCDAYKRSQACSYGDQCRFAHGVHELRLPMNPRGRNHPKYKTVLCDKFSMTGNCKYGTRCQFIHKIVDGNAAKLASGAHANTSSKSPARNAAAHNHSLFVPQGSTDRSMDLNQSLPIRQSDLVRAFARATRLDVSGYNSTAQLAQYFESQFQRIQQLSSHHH
Description: disruptors of C. elegans POS-1 RNA interaction – biochemical, fluorescence polarization, dose response (AID 1964).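 Also: purified POS-1 fused to maltose binding protein made in E. coli; potency of compounds blocking POS-1 binding to fluorescent RNA.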 On the technique in general: In fluorescence polarisation assays a small probe gives low polarisation when free and higher when bound to something large.

Assay [2] can be described thus: Luminescence Cell-Based Dose Confirmation HTS to Identify Inhibitors of Platelet Dense Granule Release. [Related pubchem assays: 1663 (Primary HTS), 1678 (Summary of Project)]. It counts as functional.
Assay [3] addresses T2, Zinc finger protein mex-5 (Caenorhabditis elegans, UniProt Q9XUB2).
T2 sequence (Q9XUB2 whole entry): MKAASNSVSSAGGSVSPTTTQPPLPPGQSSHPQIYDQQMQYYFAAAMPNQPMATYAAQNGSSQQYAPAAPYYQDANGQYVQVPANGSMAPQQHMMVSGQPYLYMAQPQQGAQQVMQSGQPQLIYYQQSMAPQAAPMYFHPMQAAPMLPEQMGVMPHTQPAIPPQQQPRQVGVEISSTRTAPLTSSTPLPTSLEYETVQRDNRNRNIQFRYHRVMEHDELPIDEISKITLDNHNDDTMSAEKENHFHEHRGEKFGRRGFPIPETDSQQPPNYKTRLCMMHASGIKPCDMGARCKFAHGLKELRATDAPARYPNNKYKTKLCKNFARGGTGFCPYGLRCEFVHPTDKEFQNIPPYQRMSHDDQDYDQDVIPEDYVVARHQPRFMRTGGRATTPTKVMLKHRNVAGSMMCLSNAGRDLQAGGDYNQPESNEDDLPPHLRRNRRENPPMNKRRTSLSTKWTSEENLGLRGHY
Description: potency of MEX-5 RNA-binding blockers – biochemical, C. elegans, fluorescence polarization, dose response (AID 1960).

In assay [4] the target is Luciferin 4-monooxygenase (Photinus pyralis, UniProt P08659). Put plainly: inhibition of purified Photinus pyralis luciferase – biochemical, luminescence, dose response (AID 1891).
Chain of Luciferin 4-monooxygenase (P08659 whole entry): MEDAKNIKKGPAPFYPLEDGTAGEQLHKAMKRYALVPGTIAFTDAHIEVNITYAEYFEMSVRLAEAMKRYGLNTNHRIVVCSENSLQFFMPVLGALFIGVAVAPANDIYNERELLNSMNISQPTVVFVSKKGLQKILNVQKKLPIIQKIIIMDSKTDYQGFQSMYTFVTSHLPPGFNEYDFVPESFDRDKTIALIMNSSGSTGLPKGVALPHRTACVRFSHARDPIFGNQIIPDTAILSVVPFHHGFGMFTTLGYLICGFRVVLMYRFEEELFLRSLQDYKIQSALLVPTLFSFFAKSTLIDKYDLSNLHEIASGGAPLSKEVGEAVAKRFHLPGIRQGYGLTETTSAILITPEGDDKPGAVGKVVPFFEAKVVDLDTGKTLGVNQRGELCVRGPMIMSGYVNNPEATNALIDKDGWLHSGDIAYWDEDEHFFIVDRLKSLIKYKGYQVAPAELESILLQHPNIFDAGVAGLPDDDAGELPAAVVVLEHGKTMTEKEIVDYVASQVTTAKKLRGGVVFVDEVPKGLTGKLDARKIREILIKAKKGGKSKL
In a further assay the target is T3, Leucine aminopeptidase (Plasmodium falciparum 3D7, UniProt Q8IL11).
T3 sequence (Q8IL11 whole entry): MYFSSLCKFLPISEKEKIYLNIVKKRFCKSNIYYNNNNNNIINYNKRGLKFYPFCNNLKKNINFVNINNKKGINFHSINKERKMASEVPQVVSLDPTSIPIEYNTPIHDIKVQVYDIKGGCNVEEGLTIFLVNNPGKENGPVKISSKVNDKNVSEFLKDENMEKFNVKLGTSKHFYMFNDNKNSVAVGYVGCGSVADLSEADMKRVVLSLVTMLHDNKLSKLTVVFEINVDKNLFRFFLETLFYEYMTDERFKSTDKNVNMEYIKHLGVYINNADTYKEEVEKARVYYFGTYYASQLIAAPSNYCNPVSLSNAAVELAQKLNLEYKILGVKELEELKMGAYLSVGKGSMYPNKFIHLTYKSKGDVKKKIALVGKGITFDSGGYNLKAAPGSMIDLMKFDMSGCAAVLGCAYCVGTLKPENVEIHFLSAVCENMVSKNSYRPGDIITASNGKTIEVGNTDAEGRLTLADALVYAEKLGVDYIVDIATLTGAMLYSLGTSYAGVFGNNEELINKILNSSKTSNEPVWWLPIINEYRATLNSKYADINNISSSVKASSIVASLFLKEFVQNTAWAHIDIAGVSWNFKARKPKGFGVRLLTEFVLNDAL
Description: P. falciparum M17LAP inhibitors, primary screen, biochemical, fluorogenic H-Leu-NHMec substrate, 1536-well (AID 1619). The class given is functional.

Assay [5] is described as follows: NIH-3T3 fibroblast cytotoxicity, dose response, cytotoxicity control, cell-based, fluorescence, Alamar Blue, secondary assay (AID 2327).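 Also: NIH-3T3 mouse fibroblasts cultured with fluconazole at 8 µg/mL.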 It counts as functional.
Assay [6] has as its system Streptococcus sp. 'group A'. Put plainly: Streptococcus pyogenes SK(-)GAS viability under kanamycin – luminescence, BacTiterGlo, confirmation, counter-screen for streptokinase expression inhibitor project, dose response (AID 1900). The class given is functional, organism-based.
Another assay concerns Streptococcus. Put plainly: GAS UMAA2166 growth inhibition – luminescence, BacTiterGlo, counter-screen for streptokinase expression inhibitor project, dose response (AID 1915).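 Also: potency for reduction of bacterial viability or growth.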 It counts as functional, organism-based. On the technique in general: The purpose of a counterscreen is to sort out artefacts and off-target activity.
The next assay deals with T4, Streptokinase A (Streptococcus pyogenes serotype M1, UniProt P10520).
T4 sequence (P10520 whole entry): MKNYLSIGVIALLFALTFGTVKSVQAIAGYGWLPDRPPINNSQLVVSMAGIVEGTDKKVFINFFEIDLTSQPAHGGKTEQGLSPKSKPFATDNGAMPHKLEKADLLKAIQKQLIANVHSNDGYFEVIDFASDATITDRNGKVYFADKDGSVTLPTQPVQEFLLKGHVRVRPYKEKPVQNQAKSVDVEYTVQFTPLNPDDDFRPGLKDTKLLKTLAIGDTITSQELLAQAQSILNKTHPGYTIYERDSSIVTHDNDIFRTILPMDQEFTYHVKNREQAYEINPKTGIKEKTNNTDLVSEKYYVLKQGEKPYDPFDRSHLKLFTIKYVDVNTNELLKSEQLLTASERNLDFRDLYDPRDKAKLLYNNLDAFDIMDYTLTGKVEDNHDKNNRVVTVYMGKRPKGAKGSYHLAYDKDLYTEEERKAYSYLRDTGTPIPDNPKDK
Description: viability-normalized secreted streptokinase activity reduction – plasminogen activation absorbance, OD405, dose response (AID 1914).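 Also: secreted streptokinase activity via plasminogen activation per viability signal from cell pellet.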 The class given is functional, Streptococcus pyogenes M1 GAS.

Assay [7] can be described thus: fluconazole-exposed Candida albicans growth modulators – fluorescence, retest, confirmation (AID 2467). It counts as functional, cell-based.
Assay [8] in a line: P. falciparum Dd2 growth inhibitors, dose response, SYBR Green, cherry-picked samples (AID 1159567). It counts as functional, cell-based.
The target of another assay is T5, Cytochrome P450 1A2 (Homo sapiens, UniProt P05177).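 Also: PubChem cytochrome P450 panel assay, CYP1A2 panel member.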
T5 sequence (P05177 whole entry): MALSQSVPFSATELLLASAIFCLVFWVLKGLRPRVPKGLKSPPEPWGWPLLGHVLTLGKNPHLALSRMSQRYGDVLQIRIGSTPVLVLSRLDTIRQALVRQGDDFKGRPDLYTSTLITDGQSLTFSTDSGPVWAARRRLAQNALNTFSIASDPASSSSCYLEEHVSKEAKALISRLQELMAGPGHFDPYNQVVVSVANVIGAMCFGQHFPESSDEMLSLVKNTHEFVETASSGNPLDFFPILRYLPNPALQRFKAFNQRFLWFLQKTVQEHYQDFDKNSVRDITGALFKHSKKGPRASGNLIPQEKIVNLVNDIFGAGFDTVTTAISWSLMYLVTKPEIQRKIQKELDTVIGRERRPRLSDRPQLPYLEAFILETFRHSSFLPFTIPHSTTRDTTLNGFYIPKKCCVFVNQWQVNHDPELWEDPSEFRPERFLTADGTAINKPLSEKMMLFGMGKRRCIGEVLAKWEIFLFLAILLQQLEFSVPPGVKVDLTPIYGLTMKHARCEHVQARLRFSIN

In another assay the target is Cytochrome P450 2C19 (Homo sapiens, UniProt P33261). Description: Cytochrome panel assay with activity outcomes. Panel member name: p450-cyp2c19 Compounds with AC50 equal or less than 10 uM are considered active. It counts as functional. Conditions: read-out: AC50.
Chain of Cytochrome P450 2C19 (P33261 whole entry): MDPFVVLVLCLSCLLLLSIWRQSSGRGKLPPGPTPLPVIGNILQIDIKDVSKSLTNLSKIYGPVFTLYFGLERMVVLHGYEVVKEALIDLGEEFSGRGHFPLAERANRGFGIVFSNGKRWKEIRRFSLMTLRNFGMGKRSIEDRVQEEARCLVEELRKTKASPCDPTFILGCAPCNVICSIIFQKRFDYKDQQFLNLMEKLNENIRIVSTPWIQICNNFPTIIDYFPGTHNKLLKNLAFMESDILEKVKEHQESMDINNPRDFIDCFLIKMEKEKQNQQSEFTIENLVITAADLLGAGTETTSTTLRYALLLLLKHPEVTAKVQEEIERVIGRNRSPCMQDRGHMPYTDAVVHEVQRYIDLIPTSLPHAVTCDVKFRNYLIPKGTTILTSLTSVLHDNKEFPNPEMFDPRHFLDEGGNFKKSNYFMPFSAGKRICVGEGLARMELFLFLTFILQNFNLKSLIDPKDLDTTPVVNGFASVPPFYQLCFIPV

Active and inactive are the calls of the source.

What is called EC50 is the concentration needed to bring the measured effect to its halfway point. For the molecule `CSc1nnc(N2C(=O)C(O)=C(C(=O)c3ccco3)C2c2cccc(Cl)c2)s1` (centres undefined), the EC50 in assay [1] was 31.3 µM (active); in assay [2], > 112 µM (not active); in assay [3], 14.3 µM (active); in [4], > 112 µM (not active).

Turning to `Cc1cccc(C(=O)NCCCNC(=O)c2cccc(C)c2)c1`, the EC50 in assay [1] and in assay [3] was > 300 µM (not active) throughout.

A word on the IC50: it is the concentration at which inhibition is half-maximal. On to `O=C(O)CCc1nnc(SCC(=O)Nc2ccc(Cl)c(C(F)(F)F)c2)nc1O`, for which the IC50 on Leucine aminopeptidase is 2.82 µM (active).

In the case of `Cc1noc(C)c1S(=O)(=O)NC1CCN(Cc2ccccc2)CC1`, the EC50 in assay [1] is 49.2 µM (active); in assay [3] it was 35.3 µM (active).

Take `Oc1c(C(Nc2cccc(C(F)(F)F)c2)c2cccnc2)ccc2cccnc12` (centres undefined): the EC50 was > 150 µM (inactive) in assay [5]; 1.71 µM (active) in assay [6]; 15.6 µM (active) with Streptococcus; > 150 µM (not active) at Streptokinase A; > 38 µM (not active) in [7].

Turning to `O=C1CCC/C1=c1\s/c(=C\c2cccnc2)c(=O)n1-c1ccccc1`, the EC50 is > 300 µM (not active) in [1] and 42 µM (active) in assay [3].

In the case of `N#Cc1c(/N=C/C2C(=O)NC(=S)NC2=O)sc2c1CCCC2`, the IC50 on Leucine aminopeptidase is 110 µM (active).

As to `N#CC1=C(N)OC2=C(C(=O)CCC2)[C@]12C(=O)N(CC(N)=O)c1ccccc12`, the EC50 in assay [1] and in assay [3] was > 300 µM (not active) throughout.

Turning to `COc1cc2c(cc1C1C(C#N)=C(N)OC3=C1C(=O)CC(C)(C)C3)OCO2` (centres undefined), the EC50 in [1] and in assay [3] was > 300 µM (not active) in each case.

Broadly, the AC50 is the midpoint of the concentration-response curve, whichever way the signal moves. In the case of `CCCc1cn([C@H]2C[C@@H]3O[C@H](CO)CC[C@@H]3O[C@@H]2CCc2ccc(-c3ccc(OC)cc3)cc2)nn1`, the AC50 in assay [8] was 4.34 µM (active).

Regarding `CC(/C=C1\N=C(SCc2ccccc2Cl)SC1=O)=C\c1ccccc1`, the AC50 on Cytochrome P450 1A2 is 4.47 µM (inconclusive); on Cytochrome P450 2C19 it was 7.08 µM (inconclusive). Further, the EC50 in assay [1] and in [3] was > 300 µM (not active) in each case.

Take `O=C(Nc1ccccc1)NC(Cc1ccc(O)cc1)C(=O)O` (centres undefined): the IC50 at Leucine aminopeptidase is 34.7 µM (active).

Take `COc1ccc2cc(/C=C3\SC(=S)NC3=O)c(N3CCOCC3)nc2c1`: the IC50 at Leucine aminopeptidase was 1.76 µM (active).

Regarding `COc1ccc2c3c(n(C)c2c1)[C@H](CO)N(C(=O)c1ccccc1)CC31CCN(C(=O)c2ccccc2)CC1`, in assay [8], the AC50 was 7.29 µM (active).

With `Cc1cccc(S(=O)(=O)N2CCCCN3[C@H](C2)[C@@H](c2ccc(-c4cccnc4)cc2)[C@@H]3CO)c1`, in assay [8], the AC50 was 4.88 µM (active).

With `O=C(C[C@@H]1C[C@H]2c3cc(NC(=O)Nc4ccccc4)ccc3O[C@H]2[C@H](CO)O1)NCc1ccccc1`, the AC50 in assay [8] is 15.9 µM (active).

For the molecule `COc1ccc(S(=O)(=O)N2CC[C@@H]3[C@H]2c2cc(-c4ccc(C#N)cc4)ccc2N[C@@H]3CO)cc1`, the AC50 in [8] was 9.46 µM (active).

As for `CCCCn1c(=O)[nH]c(=O)c2c1nc(-c1ccc(-c3ccccc3Br)o1)n2CCOC`, the EC50 in assay [1] and in assay [3] was > 300 µM (not active) in each case.
